In ChEMBL document CHEMBL4673264, “Discovery of natural TRPA1 activators through pharmacophore-based virtual screening and a biological assay” (Bioorg Med Chem Lett, 2021):

What was measured:
[1] = biological target: T1, Transient receptor potential cation channel subfamily A member 1 (Homo sapiens, UniProt O75762); test: Agonist activity at TRPA1 (unknown origin) by calcium imaging assay relative to allyl isothiocyanate; parameters: concentration or dose not given beside the values; settings: filed as agonist
[2] = biological target: T1, Transient receptor potential cation channel subfamily A member 1; test: Agonist activity at TRPA1 (unknown origin) by calcium imaging assay

T1 sequence (O75762 whole entry): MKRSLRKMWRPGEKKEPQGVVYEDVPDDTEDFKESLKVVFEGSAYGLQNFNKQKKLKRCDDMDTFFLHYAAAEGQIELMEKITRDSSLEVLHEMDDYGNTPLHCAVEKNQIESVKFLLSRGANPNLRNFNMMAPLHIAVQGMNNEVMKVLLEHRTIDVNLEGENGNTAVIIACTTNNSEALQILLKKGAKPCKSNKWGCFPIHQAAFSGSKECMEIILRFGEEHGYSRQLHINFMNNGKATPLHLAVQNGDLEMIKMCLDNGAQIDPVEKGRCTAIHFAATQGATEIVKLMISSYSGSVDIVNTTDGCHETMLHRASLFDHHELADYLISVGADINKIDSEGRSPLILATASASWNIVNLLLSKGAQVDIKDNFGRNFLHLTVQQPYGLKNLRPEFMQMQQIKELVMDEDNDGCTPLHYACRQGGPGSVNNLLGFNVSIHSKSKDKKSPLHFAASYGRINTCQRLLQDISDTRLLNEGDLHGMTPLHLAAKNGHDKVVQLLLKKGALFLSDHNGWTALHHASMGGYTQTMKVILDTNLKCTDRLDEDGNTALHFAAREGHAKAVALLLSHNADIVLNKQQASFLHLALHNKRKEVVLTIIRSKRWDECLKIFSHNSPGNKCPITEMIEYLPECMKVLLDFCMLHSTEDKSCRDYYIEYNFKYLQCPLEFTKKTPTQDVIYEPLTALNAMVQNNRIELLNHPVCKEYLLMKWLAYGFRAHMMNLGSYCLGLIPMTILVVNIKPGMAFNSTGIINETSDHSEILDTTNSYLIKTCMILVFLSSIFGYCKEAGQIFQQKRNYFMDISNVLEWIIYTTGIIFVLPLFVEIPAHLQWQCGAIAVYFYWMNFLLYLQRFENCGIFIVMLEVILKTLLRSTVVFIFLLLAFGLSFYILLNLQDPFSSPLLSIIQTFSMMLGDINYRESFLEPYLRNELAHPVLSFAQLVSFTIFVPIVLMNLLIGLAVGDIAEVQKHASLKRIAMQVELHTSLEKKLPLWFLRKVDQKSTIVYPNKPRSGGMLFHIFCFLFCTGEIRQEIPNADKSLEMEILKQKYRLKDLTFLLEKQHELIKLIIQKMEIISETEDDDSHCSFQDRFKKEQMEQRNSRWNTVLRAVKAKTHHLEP

Question: For `Cc1cccc(O)c1C`, which Activity [1] is on record?
Answer: 82%

Question: And the EC50 [2]?
Answer: 86 µM

Question: What does the source list for `Cc1ccc(O)c(O)c1`?
Answer: Activity [1]: 107%; EC50 [2]: 11.7 µM

Question: Which results are given for `C=Cc1ccc(O)c(OC)c1`?
Answer: Activity [1]: 50%; EC50 [2]: 82.8 µM

Question: Which Activity [1] does the source give for `Cc1cccc(O)c1O` here?
Answer: 151%

Question: What about the EC50 [2] of the same compound?
Answer: 2.83 µM

Question: What does the source list for `C=CCc1ccc(O)c(OC)c1` [EUGENOL]?
Answer: Activity [1]: 122%; EC50 [2]: 116 µM

Question: How did the Activity [1] turn out when `COc1cc(O)c(CC=C(C)C)c2c1C(=O)CC(c1ccc(O)cc1)O2` (stereo not drawn) was run?
Answer: 90%

Question: How did the Activity [1] turn out when `CCc1ccc(O)c(OC)c1` was run?
Answer: 74%

Question: And the EC50 [2]?
Answer: 101 µM

Question: Which Activity [1] does the source give for `CCc1ccc(O)c(O)c1` here?
Answer: 99%

Question: What about the EC50 [2] of the same compound?
Answer: 8.69 µM

Question: `COc1cc(C(=O)C(O)CO)ccc1O` (stereo not drawn) was tested. Which Activity [1] did it give?
Answer: 63%

Question: `c1ccc2[nH]ccc2c1` [INDOLE] was tested. Which Activity [1] did it give?
Answer: 111%

Question: And the EC50 [2]?
Answer: 75.2 µM

Question: With `Oc1ccccc1Cl` [2-CHLOROPHENOL] as the compound, how does the Activity [1] read?
Answer: 54%

Question: And the EC50 [2]?
Answer: 501 µM

Question: For `Cc1ccc(C(C)C)c(O)c1`, which Activity [1] is on record?
Answer: 140%

Question: How did the Activity [1] turn out when `C/C=C/c1ccc(O)c(OC)c1` was run?
Answer: 139%

Question: What about the EC50 [2] of the same compound?
Answer: 149 µM
